Legend:
Experiment in all cases: Kinase panel activity
Format in all cases: biochemical
Conditions in all cases: 0.1 μM, ATP Km
Met(Y1248H)(h) = molecular target: T1, Met(Y1248H)(h) (Homo sapiens, UniProt P08581, Y1230H)
T1 construct: purchased Millipore (KinaseProfiler service)
Procedure: (§1) The effect of NTW-3475 on kinase activity was tested for a wide range of kinases and is shown in Table 2: Summary Sheet, Activity % ATP Concentration: Km

EphA3(h) = molecular target: T2, EphA3(h) (Homo sapiens, UniProt P29320)
T2 construct: purchased Millipore (KinaseProfiler service)
Procedure: as §1

Met(Y1248D)(h) = molecular target: T3, Met(Y1248D)(h) (Homo sapiens, UniProt P08581, Y1230D)
T3 construct: purchased Millipore (KinaseProfiler service)
Procedure: as §1

RIPK2(h) = molecular target: T4, RIPK2(h) (Homo sapiens, UniProt O43353)
T4 construct: purchased Millipore (KinaseProfiler service)
Procedure: as §1

Met(h) = molecular target: T5, Met(h) (Homo sapiens, UniProt P08581)
T5 construct: purchased Millipore (KinaseProfiler service)
Procedure: as §1

Pim-1(h) = Pim-1(h) (Homo sapiens, UniProt P11309)
Procedure: as §1

EphA7(h) = molecular target: T6, EphA7(h) (Homo sapiens, UniProt Q15375)
T6 construct: purchased Millipore (KinaseProfiler service)
Procedure: as §1

Fer(h) = molecular target: T7, Fer(h) (Homo sapiens, UniProt P16591)
T7 construct: purchased Millipore (KinaseProfiler service)
Procedure: as §1

EphA8(h) = molecular target: T8, EphA8(h) (Homo sapiens, UniProt P29322)
T8 construct: purchased Millipore (KinaseProfiler service)
Procedure: as §1

CDK2/cyclinE(h) = CDK2/cyclinE(h) (Homo sapiens, UniProt P24941)
Procedure: as §1

CK1γ1(h) = CK1γ1(h) (Homo sapiens, UniProt Q9HCP0)
Procedure: as §1

STK33(h) = molecular target: T9, STK33(h) (Homo sapiens, UniProt Q9BYT3)
T9 construct: purchased Millipore (KinaseProfiler service)
Procedure: as §1

Mnk2(h) = molecular target: T10, Mnk2(h) (Homo sapiens, UniProt Q9HBH9)
T10 construct: purchased Millipore (KinaseProfiler service)
Procedure: as §1

CK1γ2(h) = CK1γ2(h) (Homo sapiens, UniProt P78368)
Procedure: as §1

LIMK1(h) = LIMK1(h) (Homo sapiens, UniProt P53667)
Procedure: as §1

B1k(m) = B1k(m) (Mus musculus, UniProt P16277)
Procedure: as §1

CLK3(h) = CLK3(h) (Homo sapiens, UniProt P49761)
Procedure: as §1

ErbB4(h) = molecular target: T11, ErbB4(h) (Homo sapiens, UniProt Q15303)
T11 construct: purchased Millipore (KinaseProfiler service)
Procedure: as §1

MRCKα(h) = molecular target: T12, MRCKα(h) (Homo sapiens, UniProt Q5VT25)
T12 construct: purchased Millipore (KinaseProfiler service)
Procedure: as §1

FGFR4(h) = FGFR4(h) (Homo sapiens, UniProt P22455)
Procedure: as §1

CDK7/cyclinH/MAT1(h) = CDK7/cyclinH/MAT1(h) (Homo sapiens, UniProt P50613)
Procedure: as §1

SIK(h) = molecular target: T13, SIK(h) (Homo sapiens, UniProt P57059)
T13 construct: purchased Millipore (KinaseProfiler service)
Procedure: as §1

FAK(h) = molecular target: T14, FAK(h) (Homo sapiens, UniProt Q05397)
T14 construct: purchased Millipore (KinaseProfiler service)
Procedure: as §1

CHK1(h) = CHK1(h) (Homo sapiens, UniProt O14757)
Procedure: as §1

cSRC(h) = cSRC(h) (Homo sapiens, UniProt P12931)
Procedure: as §1

PRAK(h) = PRAK(h) (Homo sapiens, UniProt Q8IW41)
Procedure: as §1

IR(h), activated = IR(h), activated (Homo sapiens, UniProt P06213)
Procedure: as §1

Aurora-B(h) = Aurora-B(h) (Homo sapiens, UniProt Q96GD4)
Procedure: as §1

MLK1(h) = molecular target: T15, MLK1(h) (Homo sapiens, UniProt P80192)
T15 construct: purchased Millipore (KinaseProfiler service)
Procedure: as §1

LOK(h) = LOK(h) (Homo sapiens, UniProt O94804)
Procedure: as §1

MKK6(h) = molecular target: T16, MKK6(h) (Homo sapiens, UniProt P52564)
T16 construct: purchased Millipore (KinaseProfiler service)
Procedure: as §1

CLK2(h) = CLK2(h) (Homo sapiens, UniProt P49760)
Procedure: as §1

GSK3β(h) = GSK3β(h) (Homo sapiens, UniProt P49841)
Procedure: as §1

MKK7β(h) = molecular target: T17, MKK7β(h) (Homo sapiens, UniProt O14733)
T17 construct: purchased Millipore (KinaseProfiler service)
Procedure: as §1

WNK2(h) = WNK2(h) (Homo sapiens, UniProt Q9Y3S1)
Procedure: as §1

CaMKIδ(h) = CaMKIδ(h) (Homo sapiens, UniProt Q8IU85)
Procedure: as §1

mTOR(h) = mTOR(h) (Homo sapiens, UniProt P42345)
Procedure: as §1

cKit(V654A)(h) = cKit(V654A)(h) (Homo sapiens, UniProt P10721, V654A)
Procedure: as §1

DAPK2(h) = DAPK2(h) (Homo sapiens, UniProt Q9UIK4)
Procedure: as §1

PKBγ(h) = PKBγ(h) (Homo sapiens, UniProt Q9Y243)
Procedure: as §1

CLK2(h), sequence (P49760 whole entry): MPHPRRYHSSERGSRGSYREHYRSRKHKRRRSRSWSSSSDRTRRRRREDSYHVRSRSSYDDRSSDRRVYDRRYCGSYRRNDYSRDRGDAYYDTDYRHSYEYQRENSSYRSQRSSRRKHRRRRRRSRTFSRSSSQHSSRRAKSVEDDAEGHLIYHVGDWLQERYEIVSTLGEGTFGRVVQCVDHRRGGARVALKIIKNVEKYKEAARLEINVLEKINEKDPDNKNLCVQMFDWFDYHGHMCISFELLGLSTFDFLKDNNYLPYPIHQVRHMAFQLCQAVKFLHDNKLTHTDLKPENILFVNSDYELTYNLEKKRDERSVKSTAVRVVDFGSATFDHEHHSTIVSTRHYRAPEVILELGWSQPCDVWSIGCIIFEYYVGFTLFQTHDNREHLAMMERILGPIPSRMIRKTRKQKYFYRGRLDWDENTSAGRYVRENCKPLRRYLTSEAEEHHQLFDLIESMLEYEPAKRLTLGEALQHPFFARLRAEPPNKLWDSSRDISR
Aurora-B(h), sequence (Q96GD4 whole entry): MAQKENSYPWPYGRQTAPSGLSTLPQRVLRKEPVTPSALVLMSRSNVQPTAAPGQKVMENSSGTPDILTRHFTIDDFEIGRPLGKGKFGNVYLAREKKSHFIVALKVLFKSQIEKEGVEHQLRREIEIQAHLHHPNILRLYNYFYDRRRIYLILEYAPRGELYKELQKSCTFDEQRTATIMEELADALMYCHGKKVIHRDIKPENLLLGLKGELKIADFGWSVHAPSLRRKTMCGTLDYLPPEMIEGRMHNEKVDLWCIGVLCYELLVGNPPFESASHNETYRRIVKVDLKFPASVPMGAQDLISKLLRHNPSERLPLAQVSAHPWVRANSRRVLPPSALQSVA
DAPK2(h), sequence (Q9UIK4 whole entry): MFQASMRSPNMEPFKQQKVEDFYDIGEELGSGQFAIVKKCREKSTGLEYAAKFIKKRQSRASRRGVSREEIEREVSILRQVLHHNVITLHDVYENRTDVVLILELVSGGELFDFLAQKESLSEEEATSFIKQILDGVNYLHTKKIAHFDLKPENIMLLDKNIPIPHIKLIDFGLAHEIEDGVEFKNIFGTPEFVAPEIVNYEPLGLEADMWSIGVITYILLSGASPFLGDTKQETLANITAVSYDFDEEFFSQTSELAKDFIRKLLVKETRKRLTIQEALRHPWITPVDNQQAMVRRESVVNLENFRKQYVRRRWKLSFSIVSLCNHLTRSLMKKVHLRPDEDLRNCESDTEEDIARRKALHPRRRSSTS
T7 sequence (P16591 whole entry): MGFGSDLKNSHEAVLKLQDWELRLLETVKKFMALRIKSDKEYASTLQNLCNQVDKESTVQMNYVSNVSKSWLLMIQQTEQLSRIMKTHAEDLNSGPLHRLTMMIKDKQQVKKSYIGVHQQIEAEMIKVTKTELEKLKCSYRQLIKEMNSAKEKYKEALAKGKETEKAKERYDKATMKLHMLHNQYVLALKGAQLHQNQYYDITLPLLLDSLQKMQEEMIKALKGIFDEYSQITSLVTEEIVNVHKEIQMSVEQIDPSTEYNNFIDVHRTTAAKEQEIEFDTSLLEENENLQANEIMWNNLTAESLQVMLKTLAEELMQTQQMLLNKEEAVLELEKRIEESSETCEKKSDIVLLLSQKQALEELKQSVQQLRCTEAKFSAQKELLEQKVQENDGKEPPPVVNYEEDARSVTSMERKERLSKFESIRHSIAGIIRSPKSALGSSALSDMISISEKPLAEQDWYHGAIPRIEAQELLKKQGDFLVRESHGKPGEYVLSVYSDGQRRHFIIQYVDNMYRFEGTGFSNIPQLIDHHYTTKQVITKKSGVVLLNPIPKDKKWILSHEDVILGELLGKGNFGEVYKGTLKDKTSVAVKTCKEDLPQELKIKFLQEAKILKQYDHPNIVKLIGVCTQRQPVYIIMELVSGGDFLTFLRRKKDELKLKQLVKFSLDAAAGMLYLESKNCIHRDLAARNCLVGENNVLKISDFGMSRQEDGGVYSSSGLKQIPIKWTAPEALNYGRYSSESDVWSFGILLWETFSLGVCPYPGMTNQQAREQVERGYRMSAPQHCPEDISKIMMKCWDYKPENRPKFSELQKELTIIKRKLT
WNK2(h), sequence (Q9Y3S1 whole entry): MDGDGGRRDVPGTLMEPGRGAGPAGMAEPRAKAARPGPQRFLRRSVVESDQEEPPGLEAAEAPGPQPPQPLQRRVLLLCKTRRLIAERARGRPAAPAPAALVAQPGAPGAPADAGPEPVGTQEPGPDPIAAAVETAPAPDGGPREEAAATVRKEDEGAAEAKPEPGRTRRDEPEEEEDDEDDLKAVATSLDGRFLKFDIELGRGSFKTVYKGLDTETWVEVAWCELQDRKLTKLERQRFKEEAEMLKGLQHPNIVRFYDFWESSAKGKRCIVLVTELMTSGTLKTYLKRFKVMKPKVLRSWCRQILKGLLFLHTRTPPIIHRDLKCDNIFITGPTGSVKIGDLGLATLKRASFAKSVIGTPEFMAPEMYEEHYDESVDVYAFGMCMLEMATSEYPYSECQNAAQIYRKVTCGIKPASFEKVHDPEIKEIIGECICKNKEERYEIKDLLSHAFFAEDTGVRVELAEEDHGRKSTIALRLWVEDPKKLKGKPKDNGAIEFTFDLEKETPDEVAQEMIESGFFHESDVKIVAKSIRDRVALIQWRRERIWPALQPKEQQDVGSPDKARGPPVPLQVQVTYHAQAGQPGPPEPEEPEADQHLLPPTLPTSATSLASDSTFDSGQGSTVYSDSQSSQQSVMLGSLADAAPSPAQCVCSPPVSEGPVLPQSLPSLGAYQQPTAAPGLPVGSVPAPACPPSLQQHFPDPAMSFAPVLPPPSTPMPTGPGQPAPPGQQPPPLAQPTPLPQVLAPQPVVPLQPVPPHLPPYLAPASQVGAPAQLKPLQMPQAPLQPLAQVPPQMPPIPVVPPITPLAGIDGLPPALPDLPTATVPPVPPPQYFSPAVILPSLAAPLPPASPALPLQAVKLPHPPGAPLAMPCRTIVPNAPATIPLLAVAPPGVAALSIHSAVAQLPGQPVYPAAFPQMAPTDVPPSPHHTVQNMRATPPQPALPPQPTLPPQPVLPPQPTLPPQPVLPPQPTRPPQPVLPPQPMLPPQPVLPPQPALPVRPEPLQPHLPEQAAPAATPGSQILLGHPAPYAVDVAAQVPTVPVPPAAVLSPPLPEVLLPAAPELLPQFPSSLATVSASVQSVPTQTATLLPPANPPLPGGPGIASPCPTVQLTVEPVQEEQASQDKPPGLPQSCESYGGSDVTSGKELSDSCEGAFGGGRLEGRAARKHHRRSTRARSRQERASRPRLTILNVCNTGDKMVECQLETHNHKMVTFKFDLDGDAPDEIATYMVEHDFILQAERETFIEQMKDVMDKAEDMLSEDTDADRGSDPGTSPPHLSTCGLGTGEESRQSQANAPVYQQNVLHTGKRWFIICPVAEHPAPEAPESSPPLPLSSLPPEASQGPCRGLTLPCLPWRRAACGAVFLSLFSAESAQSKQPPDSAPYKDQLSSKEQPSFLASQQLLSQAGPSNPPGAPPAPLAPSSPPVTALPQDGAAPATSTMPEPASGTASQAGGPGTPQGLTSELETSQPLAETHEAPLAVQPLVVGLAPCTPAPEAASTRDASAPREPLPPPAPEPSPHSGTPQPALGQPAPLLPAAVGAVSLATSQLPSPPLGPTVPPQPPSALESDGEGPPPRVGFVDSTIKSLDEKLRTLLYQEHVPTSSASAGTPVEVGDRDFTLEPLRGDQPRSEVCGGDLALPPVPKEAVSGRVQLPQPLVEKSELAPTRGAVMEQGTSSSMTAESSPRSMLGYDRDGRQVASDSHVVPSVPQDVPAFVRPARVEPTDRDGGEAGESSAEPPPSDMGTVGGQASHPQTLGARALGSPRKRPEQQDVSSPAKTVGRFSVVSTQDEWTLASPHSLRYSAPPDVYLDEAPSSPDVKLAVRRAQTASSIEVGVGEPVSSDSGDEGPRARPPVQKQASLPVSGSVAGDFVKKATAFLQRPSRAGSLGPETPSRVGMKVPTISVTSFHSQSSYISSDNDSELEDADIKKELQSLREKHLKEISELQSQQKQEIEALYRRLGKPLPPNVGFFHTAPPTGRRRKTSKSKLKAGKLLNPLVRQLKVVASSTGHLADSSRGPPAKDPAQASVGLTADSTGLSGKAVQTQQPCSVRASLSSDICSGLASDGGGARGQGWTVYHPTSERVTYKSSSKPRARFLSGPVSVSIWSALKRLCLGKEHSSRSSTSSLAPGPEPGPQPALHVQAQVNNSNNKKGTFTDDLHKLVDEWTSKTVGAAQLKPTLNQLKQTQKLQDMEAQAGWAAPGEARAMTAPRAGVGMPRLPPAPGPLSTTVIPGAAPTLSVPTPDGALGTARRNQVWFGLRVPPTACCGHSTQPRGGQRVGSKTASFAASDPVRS
T16 sequence (P52564 whole entry): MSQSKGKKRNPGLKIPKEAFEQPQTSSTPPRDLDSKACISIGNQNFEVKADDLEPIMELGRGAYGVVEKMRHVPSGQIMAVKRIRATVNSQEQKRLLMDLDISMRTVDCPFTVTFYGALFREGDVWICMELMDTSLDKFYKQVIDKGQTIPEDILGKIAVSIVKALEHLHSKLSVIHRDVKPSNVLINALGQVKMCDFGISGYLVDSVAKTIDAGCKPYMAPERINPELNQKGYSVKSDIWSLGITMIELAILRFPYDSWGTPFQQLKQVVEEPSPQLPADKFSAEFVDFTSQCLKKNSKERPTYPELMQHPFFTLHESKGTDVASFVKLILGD
Pim-1(h), sequence (P11309 whole entry): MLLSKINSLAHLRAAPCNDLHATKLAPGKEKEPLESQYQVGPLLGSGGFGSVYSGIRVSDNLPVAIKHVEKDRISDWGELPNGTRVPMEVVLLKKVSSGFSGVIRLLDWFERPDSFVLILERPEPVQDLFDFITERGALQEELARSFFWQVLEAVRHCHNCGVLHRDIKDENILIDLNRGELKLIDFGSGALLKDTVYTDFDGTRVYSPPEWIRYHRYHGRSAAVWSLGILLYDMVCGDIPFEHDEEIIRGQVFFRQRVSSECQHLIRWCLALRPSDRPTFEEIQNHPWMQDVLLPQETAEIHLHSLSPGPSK

## Cc1cc2c(F)c(Oc3nc(Nc4cc(C5CC5)[nH]n4)cc(N4CCN(C)CC4)n3)cc(F)c2[nH]1 [NTW-3475]
Met(Y1248H)(h)
  Activity %: 16%
EphA3(h)
  Activity %: 22%
Met(Y1248D)(h)
  Activity %: 21%
RIPK2(h)
  Activity %: 90%
Met(h)
  Activity %: 11%
Pim-1(h)
  Activity %: 114%
EphA7(h)
  Activity %: 54%
Fer(h)
  Activity %: 69%
EphA8(h)
  Activity %: 16%
CDK2/cyclinE(h)
  Activity %: 89%
CK1γ1(h)
  Activity %: 96%
STK33(h)
  Activity %: 101%
Mnk2(h)
  Activity %: 92%
CK1γ2(h)
  Activity %: 134%
LIMK1(h)
  Activity %: 15%
B1k(m)
  Activity %: 14%
CLK3(h)
  Activity %: 87%
ErbB4(h)
  Activity %: 90%
MRCKα(h)
  Activity %: 102%
FGFR4(h)
  Activity %: 19%
CDK7/cyclinH/MAT1(h)
  Activity %: 44%
SIK(h)
  Activity %: 33%
FAK(h)
  Activity %: 78%
CHK1(h)
  Activity %: 113%
cSRC(h)
  Activity %: 2%
PRAK(h)
  Activity %: 100%
IR(h), activated
  Activity %: 13%
Aurora-B(h)
  Activity %: 1%
MLK1(h)
  Activity %: 7%
LOK(h)
  Activity %: 20%
MKK6(h)
  Activity %: 113%
CLK2(h)
  Activity %: 90%
GSK3β(h)
  Activity %: 106%
MKK7β(h)
  Activity %: 97%
WNK2(h)
  Activity %: 99%
CaMKIδ(h)
  Activity %: 87%
mTOR(h)
  Activity %: 115%
cKit(V654A)(h)
  Activity %: 32%
DAPK2(h)
  Activity %: 106%
PKBγ(h)
  Activity %: 106%
